Test results taken from article PMC10060287 (Pharmacological Reports, 2023).
Entries after “also recorded” stand apart in the source; their conditions may differ. Ends that are not written are not given here.

Tests used:
µ-opioid receptor (µOR) [1] = biological target: T1, µ-opioid receptor (µOR) (Rattus norvegicus, UniProt P33535); test: Saturation binding of [^3H]DAMGO with varying G-peptide concentrations; type: Wistar rat (brain membranes)
µ-opioid receptor (µOR) [2] = biological target: T1, µ-opioid receptor (µOR); type: binding, Wistar rat (brain membranes)

T1 sequence (P33535 whole entry): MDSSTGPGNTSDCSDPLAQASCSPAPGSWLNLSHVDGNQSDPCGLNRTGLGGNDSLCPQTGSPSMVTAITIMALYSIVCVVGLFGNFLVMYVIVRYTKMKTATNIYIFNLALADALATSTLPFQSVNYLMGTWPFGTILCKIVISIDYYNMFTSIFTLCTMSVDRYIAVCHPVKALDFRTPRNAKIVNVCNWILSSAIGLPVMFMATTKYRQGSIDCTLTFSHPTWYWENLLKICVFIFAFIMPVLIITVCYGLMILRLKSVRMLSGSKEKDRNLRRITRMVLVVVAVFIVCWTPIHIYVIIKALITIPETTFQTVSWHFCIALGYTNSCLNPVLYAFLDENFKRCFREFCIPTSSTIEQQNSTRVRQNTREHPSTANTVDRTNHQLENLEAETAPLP

Substance: IIKNNLKDCGLF-NH2 [G-peptide]
- affinity increase caused by the G-peptide (µ-opioid receptor (µOR) [1]; saturation experiments for [H^3]DAMGO): dose dependency of the affinity increase
- lowest G-peptide concentration affecting the binding (µ-opioid receptor (µOR) [1]; saturation experiments with radio-ligand): 10 µM
- Bmax of DAMGO upon adding G-peptide (µ-opioid receptor (µOR) [1]; two sets of experiments, G-peptide 0.01 to 25 µM and 0.01 to 200 µM): concentration-dependent decrease in the Bmax value of DAMGO
- equilibrium dissociation constant Kd and Bmax of DAMGO upon adding G-peptide (µ-opioid receptor (µOR) [1]; varying concentrations of the G-peptide): change in both the equilibrium dissociation constant Kd and Bmax
- G-peptide concentration needed for characteristic shift in the binding curve of morphine (µ-opioid receptor (µOR) [2]): ≥ 100 µM
- affinity of the peptide (µ-opioid receptor (µOR) [2]): micromolar level; also recorded: micromolar range
- allosteric modulation of µOR (µ-opioid receptor (µOR) [2]): binds the µ-opioid receptor and acts as an allosteric modulator
- dose dependence of G-peptide effect on morphine binding (µ-opioid receptor (µOR) [2]): increases µOR affinity for its agonist morphine in a dose-dependent way
- orthosteric binding of the G-peptide (µ-opioid receptor (µOR) [2]): no significant orthosteric coupling to µOR; also recorded: inactive through the orthosteric binding site of µOR; also recorded: did not interact directly with the orthosteric binding site
